Data: the NIST ThermoML archive (doi:10.1016/j.jct.2014.04.016)
Several values for one entry are separate records, joined by “and”; a condition that tells them apart may be missing. Equal values may be shown once.

Assay: xn = mol fraction of the nth substance listed
Settings: 100 kPa, Liquid; for viscosity: Concentric cylinders viscometry; for mass density: Vibrating tube method; for electrical conductivity: Alternating current cell with electrodes

CCCCCCCCOS(=O)(=O)[O-].CCn1cc[n+](C)c1 [1-ethyl-3-methylimidazolium octyl sulfate] + O
Settings	electrical conductivity	mass density	viscosity
293.1 K, x1 = 0.1197	–	1069.2 kg/m3	–
293.1 K, x1 = 0.1402	–	1072.6 kg/m3	–
293.1 K, x1 = 0.1605	–	1076.1 kg/m3 and 1076.2 kg/m3	–
293.1 K, x1 = 0.2632	–	1085.4 kg/m3	–
293.1 K, x1 = 0.3076	–	1087.6 kg/m3	–
293.1 K, x1 = 0.3555	–	1089.2 kg/m3	136.9 mPa·s
293.1 K, x1 = 0.4108	–	1091.1 kg/m3	154.7 mPa·s
294.1 K, x1 = 0.1402	–	1072 kg/m3	66.11 mPa·s
294.1 K, x1 = 0.1766	1 S/m	–	–
294.1 K, x1 = 0.2119	0.826 S/m and 0.828 S/m	–	–
294.1 K, x1 = 0.2632	0.585 S/m	–	–
295.1 K, x1 = 0.0803	1.81 S/m	–	–
295.1 K, x1 = 0.1402	–	1071.3 kg/m3	62.58 mPa·s
295.1 K, x1 = 0.1766	1.03 S/m	–	–
295.1 K, x1 = 0.2119	0.85 S/m and 0.852 S/m	–	–
295.1 K, x1 = 0.2632	0.606 S/m	–	–
295.1 K, x1 = 0.3555	0.387 S/m and 0.389 S/m	–	–
295.1 K, x1 = 0.4108	0.32 S/m	–	–
296.1 K, x1 = 0.1402	–	1070.6 kg/m3	59.29 mPa·s
296.1 K, x1 = 0.1605	1.18 S/m	–	–
296.1 K, x1 = 0.1766	1.05 S/m and 1.06 S/m	–	–
296.1 K, x1 = 0.2119	0.873 S/m and 0.875 S/m	–	–
296.1 K, x1 = 0.2632	0.628 S/m	–	–
296.1 K, x1 = 0.3076	0.531 S/m and 0.533 S/m	–	–
296.1 K, x1 = 0.4688	0.258 S/m	–	–
297.1 K, x1 = 0.1402	–	1069.9 kg/m3	56.2 mPa·s
297.1 K, x1 = 0.1766	1.08 S/m	–	–
297.1 K, x1 = 0.2119	0.9 S/m	–	–
297.1 K, x1 = 0.2632	0.651 S/m	–	–
298.1 K, x1 = 0.0401	2.16 S/m	–	–
298.1 K, x1 = 0.0586	2.14 S/m	–	–
298.1 K, x1 = 0.0803	1.96 S/m	–	–
298.1 K, x1 = 0.1197	1.56 S/m	1065.5 kg/m3 and 1065.9 kg/m3	46.3 mPa·s and 46.17 mPa·s
298.1 K, x1 = 0.1402	1.38 S/m	1069.3 kg/m3	53.29 mPa·s
298.1 K, x1 = 0.1605	1.25 S/m	1072.8 kg/m3 and 1072.7 kg/m3	59.39 mPa·s and 57.63 mPa·s
298.1 K, x1 = 0.1766	1.11 S/m	–	–
298.1 K, x1 = 0.2119	0.925 S/m and 0.921 S/m	–	–
298.1 K, x1 = 0.2632	0.675 S/m and 0.669 S/m	1081.9 kg/m3 and 1081.7 kg/m3	80.58 mPa·s and 82.1 mPa·s
298.1 K, x1 = 0.3076	0.573 S/m and 0.572 S/m	1084.1 kg/m3	89.42 mPa·s
298.1 K, x1 = 0.3555	0.434 S/m and 0.435 S/m	1085.8 kg/m3	104.1 mPa·s and 104 mPa·s
298.1 K, x1 = 0.4108	0.358 S/m and 0.355 S/m	1087.7 kg/m3	118 mPa·s
298.1 K, x1 = 0.4688	0.287 S/m and 0.254 S/m	–	–
298.1 K, x1 = 0.5001	0.241 S/m and 0.236 S/m	–	–
303.1 K, x1 = 0.1605	–	1069.3 kg/m3	45.8 mPa·s
303.1 K, x1 = 0.2632	–	1078.5 kg/m3	62.15 mPa·s
303.1 K, x1 = 0.3076	–	1080.7 kg/m3	69.23 mPa·s
303.1 K, x1 = 0.3555	–	1082.4 kg/m3	80.49 mPa·s
303.1 K, x1 = 0.4108	–	1084.3 kg/m3	91.61 mPa·s
303.1 K, x1 = 0.5001	0.295 S/m	–	–
308.1 K, x1 = 0.1605	–	1065.9 kg/m3	35.89 mPa·s
308.1 K, x1 = 0.2632	–	1075 kg/m3	48.72 mPa·s
308.1 K, x1 = 0.3076	–	1077.2 kg/m3	54.47 mPa·s
308.1 K, x1 = 0.3555	–	1079 kg/m3	63.27 mPa·s
308.1 K, x1 = 0.4108	–	1080.9 kg/m3	72.28 mPa·s
313.1 K, x1 = 0.1197	–	1055.4 kg/m3	23.09 mPa·s
313.1 K, x1 = 0.1605	–	1062.4 kg/m3	28.53 mPa·s
313.1 K, x1 = 0.2632	–	1072.9 kg/m3	40.23 mPa·s
313.1 K, x1 = 0.3076	–	1072.2 kg/m3	43.26 mPa·s
313.1 K, x1 = 0.3555	–	1075.6 kg/m3	50.46 mPa·s
313.1 K, x1 = 0.4108	–	1077.6 kg/m3	57.88 mPa·s
313.1 K, x1 = 0.5001	0.42 S/m	–	–
318.1 K, x1 = 0.3076	–	1070.1 kg/m3	36.02 mPa·s
318.1 K, x1 = 0.3555	–	1072.2 kg/m3	40.79 mPa·s
318.1 K, x1 = 0.4108	–	1074.2 kg/m3	46.97 mPa·s
323.1 K, x1 = 0.3555	–	1068.8 kg/m3	33.03 mPa·s
323.1 K, x1 = 0.4108	–	1070.8 kg/m3	38.58 mPa·s
323.1 K, x1 = 0.5001	0.58 S/m	–	–
